Reference: ChEMBL document CHEMBL1201862, “PubChem BioAssay data set” (2004)
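Following 48 hours of exposure in 96-well plates, responses at five concentrations were used to interpolate endpoints linearly. GI50 marks 50% less growth.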 Calls of active or inactive are those of the source. Rule as the data show it: active = GI50 up to about 1.1 µM and inactive = higher. Where a SMILES comes first, the peptide text is derived from it. The star is where a group is joined. Boc = CC(C)(C)OC(=O)*

What was measured:
Assay in all cases: inhibition of tumour cell growth, NCI panel, 48 h
SN12C = tested on: SN12C
SK-MEL-5 = tested on: SK-MEL-5
ACHN = tested on: ACHN
OVCAR-4 = tested on: OVCAR-4
UO-31 = tested on: UO-31
UACC-62 = tested on: UACC-62
786-0 = tested on: 786-0
COLO 205 = tested on: COLO 205
NCI-H522 = tested on: NCI-H522
Malme-3M = tested on: Malme-3M
SF-539 = tested on: SF-539
IGROV-1 = tested on: IGROV-1
U-251 = tested on: U-251
SR = tested on: SR
OVCAR-5 = tested on: OVCAR-5
HCT-15 = tested on: HCT-15
SK-MEL-28 = tested on: SK-MEL-28
MDA-MB-435 = tested on: MDA-MB-435
MDA-N = tested on: MDA-N

SMILES	GI50 (SN12C)	GI50 (SK-MEL-5)	GI50 (ACHN)	GI50 (OVCAR-4)	GI50 (UO-31)	GI50 (UACC-62)	GI50 (786-0)	GI50 (COLO 205)	GI50 (NCI-H522)	GI50 (Malme-3M)	GI50 (SF-539)	GI50 (IGROV-1)	GI50 (U-251)	GI50 (SR)	GI50 (OVCAR-5)	GI50 (HCT-15) [µM]	GI50 (SK-MEL-28)	GI50 (MDA-MB-435)	GI50 (MDA-N)
COC(=O)C1CC2C=CC=CC(=O)C2(C)C1 (stereo unspecified)	81.1 µM (inactive)	51.1 µM (inactive)	59.6 µM (inactive)	83.2 µM (inactive)	> 100 µM (inactive)	39.9 µM (inactive)	36.6 µM (inactive)	76.9 µM (inactive)	> 10 µM (inactive)	49.7 µM (inactive)	> 100 µM (inactive)	> 100 µM (inactive)	> 100 µM (inactive)	27.8 µM (inactive)	> 100 µM (inactive)	31	–	–	–
N#C/C(N)=N/c1ccccc1	> 100 µM (inactive)	> 100 µM (inactive)	> 100 µM (inactive)	> 100 µM (inactive)	> 100 µM (inactive)	> 100 µM (inactive)	> 100 µM (inactive)	> 100 µM (inactive)	> 100 µM (inactive)	> 100 µM (inactive)	> 100 µM (inactive)	> 100 µM (inactive)	> 100 µM (inactive)	> 100 µM (inactive)	> 100 µM (inactive)	> 100	> 100 µM (inactive)	–	–
OCC1OC(NO)C(O)C(O)C1O (stereo unspecified)	> 100 µM (inactive)	> 100 µM (inactive)	> 100 µM (inactive)	> 100 µM (inactive)	–	> 100 µM (inactive)	> 100 µM (inactive)	> 100 µM (inactive)	> 100 µM (inactive)	> 100 µM (inactive)	> 100 µM (inactive)	> 100 µM (inactive)	> 100 µM (inactive)	> 100 µM (inactive)	> 100 µM (inactive)	> 100	> 100 µM (inactive)	–	–
O=C(O)C(C(=O)C(=O)C(C(=O)O)c1ccc(Cl)cc1)c1ccc(Cl)cc1 (stereo unspecified)	2.94 µM (inactive)	–	3.64 µM (inactive)	1.89 µM (inactive)	4.72 µM (inactive)	1.87 µM (inactive)	4.2 µM (inactive)	6.44 µM (inactive)	1.88 µM (inactive)	2.5 µM (inactive)	2.15 µM (inactive)	3.23 µM (inactive)	3.22 µM (inactive)	1.91 µM (inactive)	4.25 µM (inactive)	–	4.54 µM (inactive)	–	–
CC(=O)Nc1ccc2cc(C#N)c(=O)[nH]c2n1	> 100 µM (inactive)	> 100 µM (inactive)	> 100 µM (inactive)	> 100 µM (inactive)	> 100 µM (inactive)	–	> 100 µM (inactive)	> 100 µM (inactive)	> 100 µM (inactive)	> 100 µM (inactive)	> 100 µM (inactive)	> 100 µM (inactive)	81.3 µM (inactive)	–	> 100 µM (inactive)	> 100	> 100 µM (inactive)	> 100 µM (inactive)	> 100 µM (inactive)
COC(=O)C1C2C=CC(C2)N1S(=O)(=O)c1ccccc1 (stereo unspecified)	> 100 µM (inactive)	> 100 µM (inactive)	> 100 µM (inactive)	> 100 µM (inactive)	> 100 µM (inactive)	> 100 µM (inactive)	> 100 µM (inactive)	> 100 µM (inactive)	> 100 µM (inactive)	> 100 µM (inactive)	> 100 µM (inactive)	–	> 100 µM (inactive)	–	> 100 µM (inactive)	> 100	> 100 µM (inactive)	> 100 µM (inactive)	> 100 µM (inactive)
CNC(=O)CNC(=O)C(NC(=O)CNC(=O)C1CCCN1C(=O)C(C)NC(=O)C(NC(=O)OC(C)(C)C)C(C)C)C(C)C (stereo unspecified) (Boc-VAPGVG-NHMe; configuration not given here)	> 100 µM (inactive)	–	> 100 µM (inactive)	> 100 µM (inactive)	> 100 µM (inactive)	> 100 µM (inactive)	> 100 µM (inactive)	> 100 µM (inactive)	> 100 µM (inactive)	> 100 µM (inactive)	> 100 µM (inactive)	> 100 µM (inactive)	> 100 µM (inactive)	> 100 µM (inactive)	> 100 µM (inactive)	> 100	> 100 µM (inactive)	> 100 µM (inactive)	> 100 µM (inactive)
Clc1ccc(C(c2ccc(Cl)cc2)c2ccccn2)cc1	17.3 µM (inactive)	17.1 µM (inactive)	18.1 µM (inactive)	27.4 µM (inactive)	16.5 µM (inactive)	16.4 µM (inactive)	16.7 µM (inactive)	–	21.4 µM (inactive)	19.1 µM (inactive)	18.7 µM (inactive)	37.8 µM (inactive)	17 µM (inactive)	20.8 µM (inactive)	14.9 µM (inactive)	17.3	> 10 µM (inactive)	–	–
C[N+](C)(C)CC(=O)N/N=C(/Cc1cc(=O)oc2cc(O)ccc12)C(=O)Nc1ccc(Cl)cc1	> 100 µM (inactive)	> 100 µM (inactive)	> 100 µM (inactive)	> 100 µM (inactive)	> 100 µM (inactive)	> 100 µM (inactive)	> 100 µM (inactive)	> 100 µM (inactive)	> 100 µM (inactive)	> 100 µM (inactive)	> 100 µM (inactive)	> 100 µM (inactive)	–	> 100 µM (inactive)	> 100 µM (inactive)	–	> 100 µM (inactive)	–	–
Nc1cc(N2CCOCC2)nc(=O)n1-c1ccc(Cl)cc1	> 100 µM (inactive)	> 100 µM (inactive)	> 100 µM (inactive)	–	> 100 µM (inactive)	> 100 µM (inactive)	> 100 µM (inactive)	> 100 µM (inactive)	–	–	> 100 µM (inactive)	> 100 µM (inactive)	> 100 µM (inactive)	> 100 µM (inactive)	> 100 µM (inactive)	> 100	> 100 µM (inactive)	> 100 µM (inactive)	> 100 µM (inactive)
CC[N+](CC)(CC)Cc1cc2ccccc2n1C(=O)OC	–	> 100 µM (inactive)	> 100 µM (inactive)	> 100 µM (inactive)	> 100 µM (inactive)	> 100 µM (inactive)	> 100 µM (inactive)	> 100 µM (inactive)	> 100 µM (inactive)	> 100 µM (inactive)	> 100 µM (inactive)	> 100 µM (inactive)	> 100 µM (inactive)	> 100 µM (inactive)	> 100 µM (inactive)	> 100	> 100 µM (inactive)	–	–
COc1cccc(C=O)c1C(=O)c1cc(O)ccc1O	> 84.1 µM (inactive)	91.8 µM (inactive)	17.6 µM (inactive)	18.3 µM (inactive)	18.5 µM (inactive)	54.8 µM (inactive)	> 100 µM (inactive)	18.1 µM (inactive)	> 10 µM (inactive)	20.4 µM (inactive)	> 100 µM (inactive)	> 44.2 µM (inactive)	> 100 µM (inactive)	0.457 µM (active)	> 100 µM (inactive)	19.5	34.1 µM (inactive)	–	–
CCCN/C(N)=N/C#N	> 100 µM (inactive)	> 100 µM (inactive)	> 100 µM (inactive)	37.1 µM (inactive)	> 100 µM (inactive)	> 100 µM (inactive)	25.3 µM (inactive)	18 µM (inactive)	> 100 µM (inactive)	> 100 µM (inactive)	> 100 µM (inactive)	> 100 µM (inactive)	46.7 µM (inactive)	25.1 µM (inactive)	> 100 µM (inactive)	19.4	> 100 µM (inactive)	–	–
CCc1cccc(C)c1N1C(=O)C(=O)C(c2nc3ccccc3o2)C(=O)C1=O	> 100 µM (inactive)	> 100 µM (inactive)	> 100 µM (inactive)	> 100 µM (inactive)	> 100 µM (inactive)	> 100 µM (inactive)	> 100 µM (inactive)	> 100 µM (inactive)	> 100 µM (inactive)	> 100 µM (inactive)	> 100 µM (inactive)	> 100 µM (inactive)	> 100 µM (inactive)	> 100 µM (inactive)	> 100 µM (inactive)	> 100	> 100 µM (inactive)	–	–
CCCCCCCCCCCCCP(=O)(OC)OC	20.2 µM (inactive)	18.6 µM (inactive)	18.5 µM (inactive)	19.8 µM (inactive)	16.3 µM (inactive)	17.9 µM (inactive)	19.5 µM (inactive)	20 µM (inactive)	13.6 µM (inactive)	22.5 µM (inactive)	17 µM (inactive)	19.3 µM (inactive)	18.5 µM (inactive)	19 µM (inactive)	16.5 µM (inactive)	17.7	24.3 µM (inactive)	–	–
Nc1ccc(C(=O)N/C(=C\c2cccc([N+](=O)[O-])c2)c2nc3ccccc3[nH]2)cc1	83.9 µM (inactive)	76.4 µM (inactive)	40.6 µM (inactive)	25.1 µM (inactive)	20.6 µM (inactive)	46 µM (inactive)	28.4 µM (inactive)	> 100 µM (inactive)	36.6 µM (inactive)	57.3 µM (inactive)	22.8 µM (inactive)	28.5 µM (inactive)	41.4 µM (inactive)	> 100 µM (inactive)	> 100 µM (inactive)	76.6	> 92.9 µM (inactive)	–	–
NC1(c2cc3ccccc3s2)CCCCCC1	16.8 µM (inactive)	15.1 µM (inactive)	19.3 µM (inactive)	14.4 µM (inactive)	14.4 µM (inactive)	18 µM (inactive)	15.5 µM (inactive)	12.6 µM (inactive)	–	–	18 µM (inactive)	14.7 µM (inactive)	15.7 µM (inactive)	16.2 µM (inactive)	15 µM (inactive)	17.1	16.7 µM (inactive)	16.1 µM (inactive)	16.6 µM (inactive)
